Measurements reported in patent US11291667B2, “Combination therapy involving diaryl macrocyclic compounds” (TURNING POINT THERAPEUTICS, INC., priority 2017, dated 2022).
Like-named read-outs stand apart in the source and are kept apart here.

Key:
phosphorylated EGFR = assay: Immunoblotting for cellular kinase phosphorylation; assay type: cell-based, Human
phosphorylated STAT3 = assay: Immunoblotting for cellular kinase phosphorylation; assay type: cell-based, Human; settings: NCI-H1975 cells, 4 hours, 1 μM concentration
Procedure: (§2) NSCLC NCI-H1975 cells (harboring EGFR L858R/T790M double mutations) were cultured in RPMI medium, supplemented with 10% fetal bovine serum and 100 U/mL of penicillin/streptomycin. […] Cells were collected after treatment and lysed in RIPA buffer (50 mM Tris, pH 7.4, 150 mM NaCl, 1% NP-40, 0.5% Deoxycholate, 0.1% SDS) supplemented with 10 mM EDTA, 1× Halt protease and phosphatase inhibitors (Thermo Scientific). […] Membranes were incubated with chemiluminescent substrate for 5 min at room temperature (SuperSignal West Femto, Thermo Scientific). The chemiluminescent images were acquired with a C-DiGit Imaging System (LI-COR Biosciences).

SRC = SRC (Homo sapiens (Human), UniProt P12931); assay: Enzymatic kinase inhibition assay 1 (Eurofins KinaseProfiler); assay type: biochemical; settings: kinase activity remaining as % of DMSO control; 1 μM compound; ATP 10 μM
Sequence of SRC (P12931 whole entry, looked up): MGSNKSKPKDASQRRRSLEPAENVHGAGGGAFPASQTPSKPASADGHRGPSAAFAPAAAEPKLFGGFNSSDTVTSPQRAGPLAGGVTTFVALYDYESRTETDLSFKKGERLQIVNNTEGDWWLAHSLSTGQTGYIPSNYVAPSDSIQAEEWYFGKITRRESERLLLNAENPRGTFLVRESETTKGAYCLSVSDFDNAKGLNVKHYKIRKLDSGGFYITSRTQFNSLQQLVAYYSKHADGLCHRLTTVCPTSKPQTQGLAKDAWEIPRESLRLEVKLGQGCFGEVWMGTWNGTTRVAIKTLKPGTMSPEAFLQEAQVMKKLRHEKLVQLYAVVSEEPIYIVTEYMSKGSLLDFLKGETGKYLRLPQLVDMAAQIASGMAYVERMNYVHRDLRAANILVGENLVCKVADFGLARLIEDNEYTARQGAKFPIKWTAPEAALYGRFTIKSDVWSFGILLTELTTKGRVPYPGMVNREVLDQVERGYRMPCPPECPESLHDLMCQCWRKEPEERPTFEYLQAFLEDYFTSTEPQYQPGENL
Procedure: (§1) The enzymatic kinase inhibition against FAK, SRC and JAK2 were evaluated at Eurofins using the Erofins KinaseProfiler™ panel. All compounds were prepared to a working stock of 50× final assay concentration in 100% DMSO. Where appropriate, more concentrated stocks were diluted manually to 50× using 100% DMSO. Compounds supplied as powders were reconstituted to a 10 mM stock in 100% DMSO before further dilution to 50×. The required volume of the 50× stock of test compound was added to the assay well, before a reaction mix containing the enzyme and substrate was added. The reaction was initiated by the addition of ATP at 10 μM concentration. There was no pre-incubation of the compound with the enzyme/substrate mix prior to ATP addition. Data are handled using a custom built in-house analysis software. Results are expressed as kinase activity remaining, as a percentage of the DMSO control. This is calculated using the following formula: […].

JAK2 = JAK2 (Homo sapiens (Human), UniProt O60674); assay: as above; assay type: biochemical; settings: kinase activity remaining as % of DMSO control; 1 μM compound; ATP 10 μM
Sequence of JAK2 (O60674 whole entry): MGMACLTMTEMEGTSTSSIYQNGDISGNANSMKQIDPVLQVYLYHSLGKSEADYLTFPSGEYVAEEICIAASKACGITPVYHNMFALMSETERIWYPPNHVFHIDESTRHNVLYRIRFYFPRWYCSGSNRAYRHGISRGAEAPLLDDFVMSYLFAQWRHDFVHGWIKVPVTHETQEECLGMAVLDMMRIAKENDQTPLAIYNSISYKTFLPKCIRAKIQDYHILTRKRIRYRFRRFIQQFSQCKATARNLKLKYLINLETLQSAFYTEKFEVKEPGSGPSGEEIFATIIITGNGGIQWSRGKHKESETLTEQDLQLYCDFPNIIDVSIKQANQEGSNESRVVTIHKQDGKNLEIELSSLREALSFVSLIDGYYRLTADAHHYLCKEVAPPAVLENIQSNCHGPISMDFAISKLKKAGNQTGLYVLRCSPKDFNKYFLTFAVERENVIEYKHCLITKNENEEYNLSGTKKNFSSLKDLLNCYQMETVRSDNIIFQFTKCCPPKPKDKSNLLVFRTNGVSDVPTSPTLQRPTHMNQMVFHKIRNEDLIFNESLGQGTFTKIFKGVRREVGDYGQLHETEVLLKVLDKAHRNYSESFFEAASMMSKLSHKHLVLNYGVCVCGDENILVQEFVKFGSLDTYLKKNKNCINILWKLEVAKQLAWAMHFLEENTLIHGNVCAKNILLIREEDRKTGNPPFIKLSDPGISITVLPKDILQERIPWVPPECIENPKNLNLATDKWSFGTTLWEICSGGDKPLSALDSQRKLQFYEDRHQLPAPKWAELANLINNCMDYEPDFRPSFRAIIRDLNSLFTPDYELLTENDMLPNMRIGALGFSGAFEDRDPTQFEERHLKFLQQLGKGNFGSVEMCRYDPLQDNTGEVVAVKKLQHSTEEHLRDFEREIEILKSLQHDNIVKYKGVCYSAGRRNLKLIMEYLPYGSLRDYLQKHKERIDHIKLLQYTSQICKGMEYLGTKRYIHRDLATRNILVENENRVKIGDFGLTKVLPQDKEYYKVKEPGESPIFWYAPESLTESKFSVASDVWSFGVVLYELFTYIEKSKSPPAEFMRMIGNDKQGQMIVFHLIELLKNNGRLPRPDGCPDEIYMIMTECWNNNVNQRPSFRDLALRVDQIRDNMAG
Procedure: as §1

FAK = FAK (Homo sapiens (Human), UniProt Q05397); assay: as above; assay type: biochemical; settings: kinase activity remaining as % of DMSO control; 1 μM compound; ATP 10 μM
Sequence of FAK (Q05397 whole entry): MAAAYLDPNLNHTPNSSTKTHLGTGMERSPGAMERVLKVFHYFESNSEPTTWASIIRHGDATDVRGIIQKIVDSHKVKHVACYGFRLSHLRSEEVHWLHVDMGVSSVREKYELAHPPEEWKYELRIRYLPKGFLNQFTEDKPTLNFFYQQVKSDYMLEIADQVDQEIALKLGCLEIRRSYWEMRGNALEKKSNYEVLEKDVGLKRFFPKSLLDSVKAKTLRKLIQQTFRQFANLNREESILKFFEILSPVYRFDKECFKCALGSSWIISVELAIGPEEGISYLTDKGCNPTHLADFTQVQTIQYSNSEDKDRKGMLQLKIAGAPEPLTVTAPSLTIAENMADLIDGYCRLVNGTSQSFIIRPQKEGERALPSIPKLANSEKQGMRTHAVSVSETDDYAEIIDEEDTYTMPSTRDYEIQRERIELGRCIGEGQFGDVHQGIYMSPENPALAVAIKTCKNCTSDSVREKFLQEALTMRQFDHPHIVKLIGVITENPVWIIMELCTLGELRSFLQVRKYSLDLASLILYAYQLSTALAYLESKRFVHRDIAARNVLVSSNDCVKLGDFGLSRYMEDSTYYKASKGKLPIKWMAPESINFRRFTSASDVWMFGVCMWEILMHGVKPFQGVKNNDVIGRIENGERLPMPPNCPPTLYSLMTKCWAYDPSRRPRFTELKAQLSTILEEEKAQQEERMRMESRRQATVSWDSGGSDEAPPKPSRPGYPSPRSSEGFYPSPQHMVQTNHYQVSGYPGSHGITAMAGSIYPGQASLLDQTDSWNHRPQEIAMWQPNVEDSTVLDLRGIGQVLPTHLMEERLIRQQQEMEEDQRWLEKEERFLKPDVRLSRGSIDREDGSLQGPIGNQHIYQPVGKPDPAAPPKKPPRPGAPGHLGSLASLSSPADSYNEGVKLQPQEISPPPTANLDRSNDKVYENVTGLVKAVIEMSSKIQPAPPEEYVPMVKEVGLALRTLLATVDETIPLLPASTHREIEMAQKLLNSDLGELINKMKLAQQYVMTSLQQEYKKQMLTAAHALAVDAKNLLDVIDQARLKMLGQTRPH
Procedure: as §1

phosphorylated paxillin = assay: Immunoblotting for cellular kinase phosphorylation; assay type: cell-based, Human; settings: NCI-H1975 cells, 4 hours; for inhibition of phosphorylation of paxillin: 1 μM concentration
Procedure: as §2

NCI-H1975 cells = assay: NCI-H1975 lung cancer cell proliferation assay (CellTiter-Glo); assay type: cell-based, Human; settings: for IC50: Homo sapiens, NCI-H1975, 72 h; for inhibition of NCI-H1975 cell proliferation (in words): NCI-H1975 cells, 72 hours
Procedure: Cell proliferation was measured using CellTiter-Glo luciferase-based ATP detection assay (Promega) following the manufactures's protocol. IC50 determinations were performed using GraphPad Prism software (GraphPad, Inc., San Diego, Calif.).

phosphorylated ERK = assay: Immunoblotting for cellular kinase phosphorylation; assay type: cell-based, Human; settings: NCI-H1975 cells, 4 hours, 1 μM concentration
Procedure: as §2

phosphorylated AKT = assay: Immunoblotting for cellular kinase phosphorylation; assay type: cell-based, Human; settings: NCI-H1975 cells, 4 hours, 1 μM concentration
Procedure: as §2

[1] = read-out: anti-proliferation IC50
[2] = read-out: anti-proliferation IC50 of EGFR inhibitor with Compound 1 at 3 μM

Row | SMILES | inhibition of phosphorylation of EGFR (phosphorylated EGFR; NCI-H1975 cells, 4 hours, 1 μM concentration) | inhibition of EGFR phosphorylation (phosphorylated EGFR; NCI-H1975 cells, 4 hours, dose response (FIG. 11)) | inhibition of phosphorylation of STAT3 (phosphorylated STAT3) | % remaining SRC at 1 μM testing comp. (SRC) [%] | % remaining JAK2 at 1 μM testing comp. (JAK2) [%] | % remaining FAK at 1 μM testing comp. (FAK) [%] | inhibition of phosphorylation of paxillin (phosphorylated paxillin) | inhibition of phosphorylation of SRC/FAK substrate paxillin (phosphorylated paxillin; dose response (FIG. 11)) | IC50 (NCI-H1975 cells; [1]) [nM] | inhibition of NCI-H1975 cell proliferation (in words) (NCI-H1975 cells) | inhibition of phosphorylation of ERK (phosphorylated ERK) | inhibition of phosphorylation of AKT (phosphorylated AKT) | IC50 (NCI-H1975 cells; [2]) [nM] | inhibition of phosphorylation of EGFR (phosphorylated EGFR) | IC50 (NCI-H1975 cells; read-out: anti-proliferation IC50 (partial)) [nM]
1 | C[C@H]1CNC(=O)c2cnn3ccc(nc23)N[C@H](C)c2cc(F)ccc2O1 [Compound 1, (7S,13R)-11-fluoro-7,13-dimethyl-6,7,13,14-tetrahydro-1,15-ethenopyrazolo[4,3-f][1,4,8,10]benzoxatriazacyclotridecin-4(5H)-one] | minimum inhibition | no inhibition | significant inhibition | 1 | 0 | −1 | significant inhibition | dose-dependently inhibited | 4000 | only partial inhibition activity | minimum inhibition | minimum inhibition | – | – | –
2 | C[C@H]1Nc2ccn3ncc(c3n2)C(=O)NC[C@@H](O)COc2ccc(F)cc21 [Compound 2, (7R,14R)-12-fluoro-7-hydroxy-14-methyl-5,6,7,8,14,15-hexahydro-4H-1,16-ethenopyrazolo[4,3-g][1,5,9,11]benzoxatriazacyclotetradecin-4-one] | – | – | – | 2 | 3 | −1 | – | – | – | – | – | – | – | – | –
3 | O=C1NCCCOc2ccc(F)cc2CCc2ccn3ncc1c3n2 [Compound 3, 12-fluoro-5,6,7,8,14,15-hexahydro-4H-1,16-ethenopyrazolo[4,3-g][1,5,9]benzoxadiazacyclotetradecin-4-one] | – | – | – | 8 | 6 | −2 | – | – | – | – | – | – | – | – | –
4 | C#Cc1cccc(Nc2ncnc3cc(OCCOC)c(OCCOC)cc23)c1 [erlotinib] | – | – | minimum inhibition | – | – | – | minimum inhibition | – | 6240 | not sensitive | minimum inhibition | minimum inhibition | 1000 | – | –
5 | C=CC(=O)Nc1cc(Nc2nccc(-c3cn(C)c4ccccc34)n2)c(OC)cc1N(C)CCN(C)C [osimertinib] | – | – | minimum inhibition | – | – | – | minimum inhibition | – | – | […] | significant inhibition | significant inhibition | […] | significant inhibition | […]
